Laboratory results as given in patent EP3506874B1, “A PERSONAL CARE COMPOSITION” (Unilever N.V., priority 2016, dated 2018).

Columns and labels:
THP1-XBlue™ cells = test: Anti-inflammation THP-1 in vitro assay: LPS-induced IL-6 by ELISA; assay type: cell-based
Procedure: The following procedure was used to test the anti-inflammation efficacy of the various actives alone or in combination. THP1-XBlue™ (Cat No: thpx-sp, InvivoGen) cells were cultured as suspense in RPMI 1640 medium supplemented with 10% FBS, penicillin (10 U/mL) - streptomycin (10 µg/ML). Cells were differentiated in 24-well plates at the density of 5 x 10^5 cells / well with 100 nM PMA for 72 h. Cells were then co-treated with pure E. coli lipopolysaccharides (LPS) and single concentration or a combination of 6-gingerdiol and niacinamide at different doses. After 24 h, the supernatants were collected measured for interleukin (IL)-6 as pro-inflammatory bio-marker using enzyme-linked immunosorbent assay (ELISA).

[1] = Solubility in organic solvents; assay type: physicochemical; conditions: commonly used organic solvents such as alcohols, ethers, esters, acetonitrile, chloroform, dichloromethane, dimethylformamide, dimethylsulfoxide
[2] = test system: Primary adult human keratinocytes (HEKa); test: 2-D Dandruff Model: triple cytokine mix (IL-17, IL-22, TNFα) induced IL-8 by ELISA, normalised to protein; assay type: cell-based; conditions: with triple cytokine mix, mix alone 744.83
Procedure: Primary adult human keratinocytes (HEKa) frozen at passage 1 were purchased from Invitrogen (Cat no […]). They were thawed into KGM Gold (Lonza cat no 00195769) made up with all components of the accompanying bullet kit plus 70μM calcium (from a stock solution of 200mM calcium chloride), placed in a T75 tissue culture flask and grown to 70-80% confluence. The cells were passaged and again grown to 70-80% confluence. At passage 3 the cells were washed with calcium and magnesium free PBS (Life Technologies cat no 14190-094) and removed from the flask using trypsin-EDTA (Life Technologies cat no 25300-054) and washed by centrifugation with trypsin neutralising solution (Life Technologies cat no R-002-100). The cell pellet was re-suspended in KGM Gold plus 70μM calcium and containing the bullet kit components but omitting the gentamycin and hydrocortisone (referred to as plating medium). The cells were plated into 24-well plates at a density of 2x10^4 cells/well and allowed to settle for 24 hours prior to treatment. The medium is removed from the cells and replace by 0.5ml plating medium containing […], […] and […] TNFα together with the active at the required concentration. A concentration range can be done. Also included are an untreated control, a vehicle control and a triple cytokine mix without active all in triplicate. The plates are incubated for a further 16 to 24 hours. In this case the actives were 6-gingerdiol and a selection of curcuminoids. The medium is harvested for IL-8 ELISA (R &D Systems Duoset kit cat no DY208) and the cells lysed for protein assay (Pierce BCA Protein Assay Kit Life Technologies cat no 23225) in order to normalise IL-8 to protein.

| solubility [1] | Compound | Concentration of IL-6 (THP1-XBlue™ cells; 1.25 µM of 6-gingerdiol, with LPS, LPS alone 46137) | Concentration of IL-6 (THP1-XBlue™ cells; 10 µM of 6-gingerdiol, co-treated with LPS, 24 h, LPS alone 10547) | Concentration of IL-8 ([2]; 5 µM of 6-gingerdiol) | Concentration of IL-8 ([2]; 10 µM of 6-gingerdiol) | Concentration of IL-8 ([2]; 20 µM of 6-gingerdiol) | Concentration of IL-6 (THP1-XBlue™ cells; 0.5 mM niacinamide, with LPS, LPS alone 46137) | Concentration of IL-6 (THP1-XBlue™ cells; 1 mM of niacinamide, with LPS, LPS alone 46137) | Concentration of IL-6 (THP1-XBlue™ cells; 16 mM of niacinamide, co-treated with LPS, 24 h, LPS alone 10547) | Concentration of IL-8 ([2]; 10 mM of niacinamide) |
| --- | --- | --- | --- | --- | --- | --- | --- | --- | --- | --- |
| soluble | CCCCCC(O)CC(O)CCc1ccc(O)c(OC)c1 (stereo not shown) [6-gingerdiol, 1-(4-hydroxy-3-methoxyphenyl)decane-3,5-diol] | 37212 pg/mL | 8781 pg/mL | 347.99 pg/100µgprotein | 446.85 pg/100µgprotein | 390.31 pg/100µgprotein | – | – | – | – |
| – | NC(=O)c1cccnc1 [niacinamide] | – | – | – | – | – | 41688 pg/mL | 39894 pg/mL | 6031 pg/mL | 408.30 pg/100µgprotein |
